Measurements from patent publication US4373106A, “Sulfamoyl-substituted phenethylamine derivatives and process of producing them” (Yamanouchi Pharmaceutical Co., Ltd., priority 1980, dated 1983).
Where two headings read alike, the source gives them in different places.

Legend:
[1] = tested on: spontaneously hypertensive rats; assay: Antihypertensive effects in spontaneously hypertensive rats, oral, tail cuff method; type: in vivo; settings: systolic blood pressure higher than 150 mmHg
Description: Oral administration: The systolic blood pressure was measured indirectly from the tail cuff method using a programmed electrosphygmanometer (Narco Bio-Systems Inc., PE-300) on spontaneously hypertensive rats having a systolic blood pressure higher than 150 mmHg, the results being shown in Table II.

α- and β-adrenergic = settings: as disclosed in British Pat. No. 2,006,772; cited from earlier work
α-adrenergic = assay: α-Adrenergic blocking action: antagonism of the hypertensive response to phenylephrine in anesthetized, pentolinium-treated rats; type: in vivo; settings: Rattus norvegicus, iv, read-out: α-adrenergic blocking ED50
Description: A. α-Adrenergic blocking action:
The blood pressure was measured in the rats anesthetized with urethane and treated with pentolinium.

[2] = rats anesthetized with urethane, treated with pentolinium, phenylephrine 10 μg/Kg i.v.

Compound | Change in systolic blood pressure at stated dose p.o. ([1]; 10 mg/Kg p.o.) | ED50 (α-adrenergic; [2]) [µg/kg] | ED50 (α-adrenergic) [µg/kg] | also measured
COc1ccccc1OCCNCC(O)c1ccc(C)c(S(N)(=O)=O)c1 (centres unmarked) [Compound A, 5-{1-hydroxy-2-[2-(2-methoxyphenoxy)ethylamino]ethyl}-2-methylbenzenesulfonamide, reference compound] | -35 ± 6.4 mmHg | 34 | – | α- and β-adrenergic blocking actions (α- and β-adrenergic): strong α- and β-adrenergic blocking actions
CNS(=O)(=O)c1cc(CC(C)NCCOc2ccccc2OC)ccc1OC.Cl (centres unmarked) [Example 4, 2-methoxy-5-{2-[2-(2-methoxyphenoxy)ethylamino]-2-methylethyl}-N-methylbenzenesulfonamide hydrochloride] | – | – | 0.35 | –
COc1ccccc1OCCNC(C)Cc1ccc(OC)c(S(=O)(=O)N(C)C)c1.Cl (centres unmarked) [Example 5, 2-Methoxy-5-{2-[2-(2-methoxyphenoxy)ethylamino]-2-methylethyl}-N,N-dimethylbenzenesulfonamide hydrochloride] | – | – | 0.26 | –
COc1ccccc1OCCNCCc1ccc(OC)c(S(N)(=O)=O)c1.Cl [Example 10, 2-methoxy-5-{2-[2-(2-methoxyphenoxy)ethylamino]ethyl}benzenesulfonamide hydrochloride] | -57 ± 5.6 mmHg | 5.9 | – | –
COc1ccccc1OCCNCCc1ccc(C)c(S(N)(=O)=O)c1.Cl [Example 11, 5-{2-[2-(2-Methoxyphenoxy)ethylamino]ethyl}-2-methylbenzenesulfonamide hydrochloride] | – | 12 | – | Change in systolic blood pressure at stated dose p.o. ([1]; 30 mg/Kg p.o.): -50 ± 4.7 mmHg
CCOc1ccccc1OCCNCCc1ccc(C)c(S(N)(=O)=O)c1.Cl [Example 12, 5-{2-[2-(2-Ethoxyphenoxy)ethylamino]ethyl}-2-methylbenzenesulfonamide hydrochloride] | -48 ± 2.0 mmHg | 7.3 | – | –
COc1ccccc1OCCNCCc1ccc(O)c(S(N)(=O)=O)c1 [Example 15, 2-Hydroxy-5-{2-[2-(2-methoxyphenoxy)ethylamino]ethyl}benzenesulfonamide] | -54 ± 6.2 mmHg | 1.3 | – | –
COc1ccccc1OCCNC(C)Cc1ccc(OC)c(S(N)(=O)=O)c1.Cl (centres unmarked) [Example 16, 2-Methoxy-5-{2-[2-(2-methoxyphenoxy)ethylamino]-2-methylethyl}benzenesulfonamide hydrochloride] | -71 ± 11.1 mmHg | – | 0.8 | –
CCOc1ccccc1OCCNC(C)Cc1ccc(OC)c(S(N)(=O)=O)c1.Cl (centres unmarked) [Example 20, 5-{2-[2-(2-Ethoxyphenoxy)ethylamino]-2-methylethyl}-2-methoxybenzenesulfonamide hydrochloride] | – | – | – | Change in systolic blood pressure at stated dose p.o. ([1]; 3 mg/Kg p.o.): -57 ± 4.2 mmHg
COc1ccccc1OCCNC(C)Cc1ccc(C)c(S(N)(=O)=O)c1.Cl (centres unmarked) [Example 25, 5-{2-[2-(2-Methoxyphenoxy)ethylamino]-2-methylethyl}-2-methylbenzenesulfonamide hydrochloride] | -46 ± 3.6 mmHg | – | 1.2 | –
CCC(Cc1ccc(C)c(S(N)(=O)=O)c1)NCCOc1ccccc1OC.Cl (centres unmarked) [Example 26, 5-{2-[2-(2-Methoxyphenoxy)ethylamino]-2-ethylethyl}-2-methylbenzenesulfonamide hydrochloride] | -46 ± 4.3 mmHg | 4 | – | –
Cc1ccc(N(CC2=NCCN2)c2cccc(O)c2)cc1 [Phentolamine, phentolamine, reference compound] | +7.8 ± 5.0 mmHg | 61 | – | Change in systolic blood pressure at stated dose p.o. ([1]; 100 mg/Kg p.o.): -70 ± 10.1 mmHg
